These results are taken from ChEMBL document CHEMBL3792369, “Nahuoic Acids B-E, Polyhydroxy Polyketides from the Marine-Derived Streptomyces sp. SCSGAA 0027” (2016).

Experiment [1] addresses Acetylcholinesterase (Homo sapiens) (UniProt P22303). Kind of experiment: Inhibition of acetylcholinesterase (unknown origin).
Another experiment deals with NCI-H1975. Kind of experiment: Cytotoxicity against human NCI-H1975 cells. It is filed as functional, cell-based.
A further experiment has as its system K562. Kind of experiment: Cytotoxicity against human K562 cells. Format: functional, cell-based.
The subject of a further experiment is BGC-823. Kind of experiment: Cytotoxicity against human BGC823 cells. It is filed as functional, cell-based.
The subject of another experiment is MCF7. Kind of experiment: Cytotoxicity against human MCF7 cells. Format: functional, cell-based.
For the next experiment, the system named is HL-60. Kind of experiment: Cytotoxicity against human HL60 cells. It is filed as functional, cell-based.
The next experiment relates to Huh-7. Description: Cytotoxicity against human HuH7 cells. It is filed as functional, cell-based.
Experiment [2] deals with Staphylococcus aureus. Kind of experiment: Antibacterial activity against Staphylococcus aureus. Format: functional, organism-based.
Experiment [3] relates to Shewanella oneidensis. Description: Antibacterial activity against Shewanella oneidensis MR-1. Format: functional.
The test system of experiment [4] is Staphylococcus aureus. Kind of experiment: Antibiofilm activity against Staphylococcus aureus assessed as inhibition of biofilm formation by crystal violet assay. Format: functional, organism-based.
Experiment [5] concerns Shewanella oneidensis. Kind of experiment: Antibiofilm activity against Shewanella oneidensis MR-1 assessed as inhibition of biofilm formation at 200 ug/ml by crystal violet assay. Format: functional.

Activity calls are given as the source filed them. The rule behind the calls is not given here.

Chain of Acetylcholinesterase (Homo sapiens) (P22303 whole entry): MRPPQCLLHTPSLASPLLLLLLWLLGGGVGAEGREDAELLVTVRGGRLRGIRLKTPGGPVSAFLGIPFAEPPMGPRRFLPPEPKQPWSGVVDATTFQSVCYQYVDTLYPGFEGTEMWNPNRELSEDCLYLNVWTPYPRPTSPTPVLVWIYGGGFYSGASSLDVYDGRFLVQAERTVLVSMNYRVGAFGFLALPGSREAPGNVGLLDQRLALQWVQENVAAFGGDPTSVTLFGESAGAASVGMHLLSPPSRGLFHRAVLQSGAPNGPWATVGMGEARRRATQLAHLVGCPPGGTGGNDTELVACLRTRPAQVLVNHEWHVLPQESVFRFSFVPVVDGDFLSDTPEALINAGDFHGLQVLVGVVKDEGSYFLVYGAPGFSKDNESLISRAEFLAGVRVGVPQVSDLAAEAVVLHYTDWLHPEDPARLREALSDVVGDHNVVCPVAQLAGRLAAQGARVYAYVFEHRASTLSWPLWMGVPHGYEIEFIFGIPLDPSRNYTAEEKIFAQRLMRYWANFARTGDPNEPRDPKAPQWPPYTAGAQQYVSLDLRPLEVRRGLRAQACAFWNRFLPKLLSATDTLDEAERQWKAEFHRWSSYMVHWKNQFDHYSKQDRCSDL

By inhibition is commonly meant the relative decrease from the control value, in per cent. `CC1=C[C@@]2(C)[C@H]([C@@H](C)[C@H](O)[C@H](O)[C@H]2O)[C@@H](/C=C(\C)C(=O)O)[C@@H]1/C(C)=C/C[C@H](O)C[C@@H](O)[C@H](C)[C@@H](O)C(C)C`: in experiment [1], the inhibition entry was “inactive”. For the same compound, the result in the experiment on NCI-H1975, in the experiment with K562, in the experiment with BGC-823, with MCF7, in the experiment with HL-60 and in the experiment with Huh-7 was inactive. The outcome in the experiment on Staphylococcus aureus [2], in the experiment on Shewanella oneidensis [3] and in the experiment with Staphylococcus aureus [4] was inactive. Besides, in the experiment with Shewanella oneidensis [5], the inhibition at 200 µg/mL came to 63%.
Consider `CC1=C[C@@]2(C)[C@H]([C@@H](C)[C@H](O)C[C@H]2O)[C@@H](/C=C(\C)C(=O)O)[C@@H]1/C(C)=C/C[C@H](O)C[C@@H](O)C[C@@H](O)[C@H](C)[C@@H](O)C(C)C`, for which the inhibition result in [1] is “inactive”. Also, the outcome in the experiment on NCI-H1975, in the experiment on K562, in the experiment on BGC-823, in the experiment on MCF7, in the experiment on HL-60 and with Huh-7 was inactive. Also, the outcome in the experiment with Staphylococcus aureus [2], in the experiment with Shewanella oneidensis [3] and in the experiment with Staphylococcus aureus [4] was inactive. Besides, the inhibition at 200 µg/mL in the experiment with Shewanella oneidensis [5] came out at 91%.
For `CC1=C[C@@]2(C)[C@@H]([C@@H](/C=C(\C)C(=O)O)[C@@H]1/C(C)=C/C[C@H](O)C[C@@H](O)[C@H](C)[C@@H](O)C(C)C)[C@@H](C)CC[C@H]2O`, the inhibition result in [1] is “inactive”. Further, the result in the experiment with NCI-H1975, in the experiment on K562, with BGC-823, in the experiment with MCF7, with HL-60 and in the experiment on Huh-7 was inactive. Further, the result in the experiment on Staphylococcus aureus [2], with Shewanella oneidensis [3] and in the experiment with Staphylococcus aureus [4] was inactive. Besides, the inhibition at 200 µg/mL in the experiment on Shewanella oneidensis [5] was found to be 94%.
As to `CC1=C[C@@]2(C)[C@H]([C@@H](C)[C@H](O)C[C@H]2O)[C@@H](/C=C(\C)C(=O)O)[C@@H]1/C(C)=C/C[C@H](O)C[C@@H](O)[C@H](C)[C@@H](O)C(C)C`, the inhibition result in experiment [1] is “inactive”. Further, the result in the experiment with NCI-H1975, in the experiment with K562, with BGC-823, in the experiment on MCF7, with HL-60 and in the experiment with Huh-7 was inactive. Further, the outcome in the experiment with Staphylococcus aureus [2], with Shewanella oneidensis [3] and in the experiment with Staphylococcus aureus [4] was inactive. For the same compound, the inhibition at 200 µg/mL with Shewanella oneidensis [5] was determined as 98%.
Consider `CC1=C[C@@]2(C)[C@@H]([C@@H](/C=C(\C)C(=O)O)[C@@H]1/C(C)=C/C[C@H](O)C[C@@H](O)C[C@@H](O)[C@H](C)[C@@H](O)C(C)C)[C@@H](C)CC[C@H]2O`, for which the inhibition entry in experiment [1] is “inactive”. For the same compound, the outcome in the experiment on NCI-H1975, in the experiment on K562, in the experiment with BGC-823, in the experiment with MCF7, in the experiment on HL-60 and in the experiment with Huh-7 was inactive. Moreover, the result with Staphylococcus aureus [2], with Shewanella oneidensis [3] and in the experiment with Staphylococcus aureus [4] was inactive. Also, in the experiment on Shewanella oneidensis [5], the inhibition at 200 µg/mL was 95%.
